Reference: US9175030B2, “Derivatives of avicin D and methods of making and using thereof” (priority 2012, dated 2015)

How the values were obtained:
BT474 M1 = experiment: MTT growth inhibition, BT474 M1; type: cell-based; details: BT474 M1 cells, 72 hrs
Method: (§1) The growth inhibitory effects of avicin D and oxetane derivative were measured using the MTT [3-(4,5-dimethylthiazol-2-yl)-2,5-diphenyl tetrazolium bromide] reduction assay as described in Haridas et al. (2001). Cells were cultured with varying concentrations of avicin D or oxetane in 96-well plates for 72 hrs at 37° C. At the end of 72 hrs, cells were stained with MTT for 2 hrs and then incubated with lysis buffer (20% SDS in 50% N,N-dimethylformamide) for another 6 hrs. Optical density at 570 nm was used as a measure of cell viability.
(§2) The cell lines 769P, A498, CAKI-1, and CAKI-2 are derived from primary human renal-cell cancers (RCC). A549 is a human lung adenocarcinoma epithelial cell line. B16F10 is a mouse melanoma cell line. BT474, BT 474 M1, BT549, MCF7, […], and ZR751 are breast cancer cell lines. CCRF-CEM, Jurkat, and MOLT4 are leukemia cell lines. HELA is cell line derived from cervical caner. HepG2 is a human hepatocellular liver carcinoma cell line. JeKo-1 is a mantle cell lymphoma (MCL) cell line. LnCAP is a cell line was established from a metastatic lesion of human prostatic adenocarcinoma. MM.1 and RPMI-8226 are human multiple myeloma cell lines. OVCAR3 and SKOV3 are ovarian cancer cell lines. Panc-1 is a pancreatic cancer cell line. PC3 is a prostate cancer cell line. Raji is a Burkitt's lymphoma cell line. RL is a non-Hodgkin's lymphoma cell line. […]

BT549 = experiment: MTT growth inhibition, BT549; type: cell-based; details: BT549 cells, 72 hrs
Method: as §1, §2

Hela = experiment: MTT growth inhibition, Hela; type: cell-based; details: Hela cells, 72 hrs
Method: as §1, §2

JEKO-1 = experiment: MTT growth inhibition, JEKO-1; type: cell-based; details: JEKO-1 cells, 72 hrs
Method: as §1, §2

LnCAP = experiment: MTT growth inhibition, LnCAP; type: cell-based, human; details: LnCAP cells, 72 hrs
Method: as §1, §2

MINO = experiment: MTT growth inhibition, MINO; type: cell-based; details: MINO cells, 72 hrs
Method: as §1, §2

MM1 = experiment: MTT growth inhibition, MM1; type: cell-based, human; details: MM1 cells, 72 hrs
Method: as §1, §2

OVCAR3 = experiment: MTT growth inhibition, OVCAR3; type: cell-based; details: OVCAR3 cells, 72 hrs
Method: as §1, §2

Panc-1 = experiment: MTT growth inhibition, Panc-1; type: cell-based; details: Panc-1 cells, 72 hrs
Method: as §1, §2

ZR751 = experiment: MTT growth inhibition, ZR751; type: cell-based; details: ZR751 cells, 72 hrs
Method: as §1, §2

3T3 L1 = experiment: MTT growth inhibition, 3T3 L1; type: cell-based; details: 3T3 L1 fibroblast cells, 72 hrs
Method: as §1, §2

HEK293 = experiment: MTT growth inhibition, HEK293; type: cell-based, human; details: HEK293 cells, 72 hrs
Method: as §1, §2

[1] = test system: HMLE cells expressing TWIST; experiment: Mammosphere formation, cancer stem cell model; type: cell-based, human; details: 60 nM, added day 7 and every 7th day, seen on day 21
Method: Human mammary epithelial cells were transfected with transcription factor TWIST acquiring mesenchymal stem cell-like traits, including the ability to form mammospheres. See Cano et al., 2000; Yang et al., Cell, 2004; Mani et al., 2008, which are all incorporated herein by reference.
HMLE cells expressing TWIST were plated at 100 cells/0.1 ml in 96-well plates. The cells were cultured in MEGM media supplemented with 20 ng/mL bFGF, 10 ng/mL EGF, 4 ug/mL heparin, and 1% methyl cellulose. Formation of spheres could be seen around day 7. Avicin D/Compound 8 (60 nM) was first added to the cultures on day 7 and subsequently every 7th day. […] See FIGS. 6A-D, which show mammospheres treated with 60 nM of Avicin D or Compound 8 for fourteen days. The ability of these agents to induce cell kill in both the tumor cell population as well as the stem-like cells enhances their potential for use as a cancer therapy.

NF-κB = experiment: Inhibition of NF-κB activation (FIG. 2A); type: cell-based; details: compared with dexamethasone
IL-6 = IL-6 expression, constitutive and TNF-induced (FIG. 2B); type: cell-based
[2] = target: glucocorticoid receptor (GR) (Homo sapiens, UniProt P04150); experiment: GR Ser-211 phosphorylation (FIG. 4); type: cell-based; details: up to 16 hours
Sequence of glucocorticoid receptor (GR) (P04150 whole entry): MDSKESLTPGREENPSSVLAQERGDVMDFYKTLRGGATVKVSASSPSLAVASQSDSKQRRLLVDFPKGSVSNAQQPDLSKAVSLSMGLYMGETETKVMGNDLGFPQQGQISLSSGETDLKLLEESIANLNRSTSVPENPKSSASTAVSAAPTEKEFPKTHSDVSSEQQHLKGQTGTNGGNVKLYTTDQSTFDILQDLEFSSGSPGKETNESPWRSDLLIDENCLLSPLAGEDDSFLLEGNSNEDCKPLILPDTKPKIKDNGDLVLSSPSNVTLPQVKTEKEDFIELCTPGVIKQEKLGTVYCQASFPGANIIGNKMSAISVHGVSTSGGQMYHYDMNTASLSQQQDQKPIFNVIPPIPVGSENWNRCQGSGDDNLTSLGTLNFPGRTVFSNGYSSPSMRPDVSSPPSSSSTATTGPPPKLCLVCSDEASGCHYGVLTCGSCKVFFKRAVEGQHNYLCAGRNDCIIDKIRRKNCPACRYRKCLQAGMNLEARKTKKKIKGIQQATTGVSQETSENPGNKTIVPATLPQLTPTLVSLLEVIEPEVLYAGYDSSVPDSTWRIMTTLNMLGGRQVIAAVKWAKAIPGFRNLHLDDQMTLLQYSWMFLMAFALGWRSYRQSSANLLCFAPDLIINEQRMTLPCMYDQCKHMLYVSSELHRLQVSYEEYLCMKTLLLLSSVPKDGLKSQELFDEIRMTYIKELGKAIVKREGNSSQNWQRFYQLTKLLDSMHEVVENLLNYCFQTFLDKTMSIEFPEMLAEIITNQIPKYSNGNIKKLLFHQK

3T3-L1 cells = details: cited from earlier work
adiponectin = details: adipocytes; cited from earlier work

IC50 (BT474 M1): 1.1 µM | IC50 (BT549): 4.8 µM | IC50 (Hela): 13.2 µM | IC50 (LnCAP): 0.47 µM | IC50 (MM1): 0.1 µM | IC50 (OVCAR3): 1.3 µM | IC50 (Panc-1): 0.52 µM
SMILES: C=C[C@](C)(O)CC/C=C(\CO)C(=O)O[C@H]1[C@H](O)[C@@H](O)[C@H](O[C@@](C)(C=C)CC/C=C(\CO)C(=O)O[C@H]2C[C@]3(C(=O)O[C@@H]4O[C@H](CO)[C@@H](O)[C@H](O)[C@H]4O[C@@H]4O[C@@H](C)[C@H](O[C@@H]5O[C@@H](CO)[C@H](O)[C@H]5O)[C@@H](O[C@@H]5O[C@H](CO)[C@@H](O)[C@H](O)[C@H]5O)[C@H]4O)[C@H](O)C[C@]4(C)C(=CC[C@@H]5[C@@]6(C)CC[C@H](O[C@@H]7O[C@H](CO[C@@H]8O[C@H](C)[C@H](O)[C@H](O)[C@H]8O[C@@H]8OC[C@@H](O)[C@H](O)[C@H]8O)[C@@H](O)[C@H](O)[C@H]7NC(C)=O)C(C)(C)[C@@H]6CC[C@]54C)[C@@H]3CC2(C)C)O[C@@H]1C [Avicin D]
IC50 (JEKO-1): 0.42 µM | IC50 (MINO): 0.42 µM | IC50 (ZR751): 0.67 µM | IC50 (3T3 L1): 3.8 µM | IC50 (HEK293): 6.5 µM | development of mammospheres as measured by the size of the spheres [1]: appear to inhibit the development of these spheres | activation of NF-κB (NF-κB): inhibits activation of NF-κB | expression of IL-6 (IL-6): suppresses the expression of both constituitive and TNF-induced IL-6 | phosphorylation of Ser-211 [2]: does not enhance phosphorylation of Ser-211 even after 16 hours | adipogenesis (3T3-L1 cells): inhibit adipogenesis | intracellular triglyceride level (3T3-L1 cells): reduce intracellular triglyceride level in a dose-dependent manner | expression and secretion of adiponectin (adiponectin): increased the expression and secretion of adiponectin
